In ChEMBL document CHEMBL1137216, “Identification of a new scaffold for opioid receptor antagonism based on the 2-amino-1,1-dimethyl-7-hydroxytetralin pharmacophore” (J Med Chem, 2004):

Legend:
[1] = target: T1, Kappa-type opioid receptor (Homo sapiens, UniProt P41145); experiment: Inhibition of [3H]U-69593 binding to human kappa opioid receptor expressed in CHO cells; assay type: cell-based
[2] = target: T2, Delta-type opioid receptor (Homo sapiens, UniProt P41143); experiment: Inhibition of [3H]C1-DPDPE binding to human delta opioid receptor expressed in CHO cells; assay type: cell-based
Mu-type opioid receptor [3] = target: T3, Mu-type opioid receptor (Homo sapiens, UniProt P35372); experiment: Inhibition of [3H]DAMGO binding to human Mu opioid receptor expressed in CHO cells; assay type: cell-based
[4] = target: T1, Kappa-type opioid receptor
Description: Antagonist potency towards human kappa opioid receptor in [35S]GTP-gamma-S, assay

Mu-type opioid receptor [5] = target: T3, Mu-type opioid receptor
Description: Antagonist potency towards human mu opioid receptor in [35S]GTP-gamma-S, assay

[6] = target: T2, Delta-type opioid receptor
Description: Antagonist potency towards human delta opioid receptor in [35S]GTP-gamma-S, assay

Mu-type opioid receptor [7] = target: T3, Mu-type opioid receptor; remark: listed apart in the source
Description: Agonist potency towards human mu opioid receptor in [35S]GTP-gamma-S, assay

T3 sequence (P35372 whole entry): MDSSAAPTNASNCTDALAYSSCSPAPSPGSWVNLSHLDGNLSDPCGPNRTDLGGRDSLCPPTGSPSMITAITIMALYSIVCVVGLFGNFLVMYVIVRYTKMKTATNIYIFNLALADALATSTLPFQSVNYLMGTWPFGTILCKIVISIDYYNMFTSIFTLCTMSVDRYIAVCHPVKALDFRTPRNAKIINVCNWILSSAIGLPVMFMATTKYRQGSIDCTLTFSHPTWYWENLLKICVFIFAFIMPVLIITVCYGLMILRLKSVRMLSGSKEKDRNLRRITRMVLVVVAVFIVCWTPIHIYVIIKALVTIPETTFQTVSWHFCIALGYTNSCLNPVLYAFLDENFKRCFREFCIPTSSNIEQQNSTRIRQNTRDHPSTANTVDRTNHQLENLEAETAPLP
T1 sequence (P41145 whole entry): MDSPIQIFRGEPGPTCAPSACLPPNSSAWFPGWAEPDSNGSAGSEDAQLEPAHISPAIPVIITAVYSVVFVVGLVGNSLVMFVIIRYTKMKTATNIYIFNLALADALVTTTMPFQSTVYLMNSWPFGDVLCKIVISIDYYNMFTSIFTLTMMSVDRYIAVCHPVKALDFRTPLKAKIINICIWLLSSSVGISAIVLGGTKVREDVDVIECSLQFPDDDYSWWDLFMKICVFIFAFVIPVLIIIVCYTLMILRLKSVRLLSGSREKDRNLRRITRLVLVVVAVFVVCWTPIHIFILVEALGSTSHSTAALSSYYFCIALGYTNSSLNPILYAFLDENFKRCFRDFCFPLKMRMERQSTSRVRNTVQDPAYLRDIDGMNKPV
T2 sequence (P41143 whole entry): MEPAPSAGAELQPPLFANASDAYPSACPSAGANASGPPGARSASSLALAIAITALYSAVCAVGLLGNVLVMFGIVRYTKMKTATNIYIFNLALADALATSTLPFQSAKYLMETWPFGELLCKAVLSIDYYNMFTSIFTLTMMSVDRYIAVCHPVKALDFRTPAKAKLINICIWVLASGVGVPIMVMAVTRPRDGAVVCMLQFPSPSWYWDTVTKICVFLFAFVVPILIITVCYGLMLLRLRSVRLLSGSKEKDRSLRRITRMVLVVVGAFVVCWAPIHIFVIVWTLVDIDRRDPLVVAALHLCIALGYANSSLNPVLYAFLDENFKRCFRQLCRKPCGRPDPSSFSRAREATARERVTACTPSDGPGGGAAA

SMILES | Ki [1] | Ki [2] | Ki (Mu-type opioid receptor [3]) | Ke [4] | Ke (Mu-type opioid receptor [5]) | Ke [6] | Ke (Mu-type opioid receptor [7])
C=CCNC1CCc2ccc(O)cc2C1(C)C (configuration not stated) | 63.7 nM | 5830 nM | 202 nM | – | – | – | –
C=CCN(CC=C)C1CCc2ccc(O)cc2C1(C)C (configuration not stated) | 55.8 nM | 672 nM | 105 nM | – | – | – | –
C=CCN(C)C1CCc2ccc(O)cc2C1(C)C (configuration not stated) | 263 nM | 2220 nM | – | – | – | – | –
CC1(C)c2cc(O)ccc2CCC1NC/C=C/c1ccccc1 (configuration not stated) | 82.3 nM | 472 nM | 10.7 nM | 42.7 nM | 67.7 nM | – | –
CCCNC1CCc2ccc(O)cc2C1(C)C (configuration not stated) | 251 nM | > 10000 nM | 491 nM | – | – | – | –
CC1(C)c2cc(O)ccc2CCC1N(CC1CC1)CC1CC1 (configuration not stated) | 1830 nM | 5770 nM | 422 nM | – | – | – | –
Oc1ccc2c3c1O[C@H]1c4[nH]c5c(c4C[C@@]4(O)[C@@H](C2)N(CC2CC2)CC[C@]314)C[C@@]1(O)[C@H]2Cc3ccc(O)c4c3[C@@]1(CCN2CC1CC1)[C@H]5O4 | – | – | – | 0.03 nM | – | – | –
CN(CC1CC1)C1CCc2ccc(O)cc2C1(C)C (configuration not stated) | 146 nM | 601 nM | 104 nM | – | – | – | –
CN(C)C1CCc2ccc(O)cc2C1(C)C (configuration not stated) | 333 nM | 4010 nM | 114 nM | – | – | – | –
CC1(C)c2cc(O)ccc2CCC1N(C/C=C/c1ccccc1)C/C=C/c1ccccc1 (configuration not stated) | 1250 nM | > 10000 nM | 268 nM | – | – | – | –
CC1(C)c2cc(O)ccc2CCC1NCC1CC1 (configuration not stated) | 232 nM | 3830 nM | 312 nM | – | – | – | –
CCCN(C)C1CCc2ccc(O)cc2C1(C)C (configuration not stated) | 184 nM | 2090 nM | 85 nM | – | – | – | –
CO[C@H]1Cc2ccc(O)cc2C(C)(C)[C@@H]1NC/C=C/c1ccccc1 | 7.5 nM | 22.4 nM | 1.63 nM | 2.12 nM | 2.62 nM | 26.3 nM | –
CO[C@H]1Cc2ccc(O)cc2C(C)(C)[C@@H]1N | 149 nM | 2430 nM | 17.5 nM | 49.3 nM | – | – | 234 nM
CN(C/C=C/c1ccccc1)C1CCc2ccc(O)cc2C1(C)C (configuration not stated) | 207 nM | 591 nM | 39.7 nM | – | – | – | –
CCCN(CCC)C1CCc2ccc(O)cc2C1(C)C (configuration not stated) | 552 nM | 2720 nM | 482 nM | – | – | – | –
